Measured values taken from patent US12077503B2, “Substituted cyclic amides and their use as herbicides” (FMC CORPORATION, priority 2015, dated 2024).

What was measured:
Assay type in all cases: in vivo
Kochia (Kochia scoparia) [1] = assay: Test A preemergence; conditions: Preemergence; for Plant response rating, Kochia: 125 g ai/ha, visual injury after approximately 10 d, 0 to 100 scale where 0 is no effect and 100 is complete control; for Kochia plant response rating (0 to 100 scale, 0 is no effect, 100 is complete control): 500 g ai/ha, visual injury approx. 10 d
Source text: (§1) Seeds of plant species selected from barnyardgrass (Echinochloa crus-galli), Kochia (Kochia scoparia), ragweed (common ragweed, Ambrosia elatior), ryegrass, Italian (Italian ryegrass, Lolium multiflorum), crabgrass, large (Digitaria sanguinalis), giant foxtail (Setaria faberii), green foxtail (Setaria viridis), morningglory (Ipomoea spp.), pigweed (Amaranthus retroflexus), velvetleaf (Abutilon theophrasti), wheat (Triticum aestivum), and corn (Zea mays) were planted into a blend of loam soil and sand and treated preemergence with a directed soil spray using test chemicals formulated in anon-phytotoxic solvent mixture which included a surfactant.
(§2) At the same time, plants selected from these crop and weed species and also blackgrass (Alopecurus myosuroides), and Galium (catchweed bedstraw, Galium aparine) were planted in pots containing the same blend of loam soil and sand and treated with postemergence applications of test chemicals formulated in the same manner. Plants ranged in height from 2 to 10 cm and were in the one- to two-leaf stage for the postemergence treatment. Treated plants and untreated controls were maintained in a greenhouse for approximately 10 d, after which time all treated plants were compared to untreated controls and visually evaluated for injury. Plant response ratings, summarized in Table A, are based on a 0 to 100 scale where 0 is no effect and 100 is complete control. A dash (-) response means no test result.

[2] = system: barnyardgrass (Echinochloa crus-galli); assay: Test A preemergence; conditions: Preemergence; for Plant response rating, Barnyardgrass: 125 g ai/ha, visual injury after approximately 10 d, 0 to 100 scale where 0 is no effect and 100 is complete control; for Barnyardgrass plant response rating (0 to 100 scale, 0 is no effect, 100 is complete control): 500 g ai/ha, visual injury approx. 10 d
Source text: as §1, §2

[3] = system: giant foxtail (Setaria faberii); assay: Test A preemergence; conditions: Preemergence; for Plant response rating, Foxtail, Giant: 125 g ai/ha, visual injury after approximately 10 d, 0 to 100 scale where 0 is no effect and 100 is complete control; for Foxtail, Giant plant response rating (0 to 100 scale, 0 is no effect, 100 is complete control): 500 g ai/ha, visual injury approx. 10 d
Source text: as §1, §2

[4] = system: pigweed (Amaranthus retroflexus); assay: Test A preemergence; conditions: Preemergence; for Plant response rating, Pigweed: 125 g ai/ha, visual injury after approximately 10 d, 0 to 100 scale where 0 is no effect and 100 is complete control; for Pigweed plant response rating (0 to 100 scale, 0 is no effect, 100 is complete control): 500 g ai/ha, visual injury approx. 10 d
Source text: as §1, §2

[5] = system: ragweed (common ragweed, Ambrosia elatior); assay: Test A preemergence; conditions: Preemergence; for Plant response rating, Ragweed: 125 g ai/ha, visual injury after approximately 10 d, 0 to 100 scale where 0 is no effect and 100 is complete control; for Ragweed plant response rating (0 to 100 scale, 0 is no effect, 100 is complete control): 500 g ai/ha, visual injury approx. 10 d
Source text: as §1, §2

[6] = system: ryegrass, Italian (Italian ryegrass, Lolium multiflorum); assay: Test A preemergence; conditions: Preemergence; for Plant response rating, Ryegrass, Italian: 125 g ai/ha, visual injury after approximately 10 d, 0 to 100 scale where 0 is no effect and 100 is complete control; for Ryegrass, Italian plant response rating (0 to 100 scale, 0 is no effect, 100 is complete control): 500 g ai/ha, visual injury approx. 10 d
Source text: as §1, §2

[7] = system: Galium (catchweed bedstraw, Galium aparine); assay: Test A postemergence
Source text: as §1, §2

Kochia (Kochia scoparia) [8] = assay: Test A postemergence
Source text: as §1, §2

[9] = system: barnyardgrass (Echinochloa crus-galli); assay: Test A postemergence
Source text: as §1, §2

[10] = system: blackgrass (Alopecurus myosuroides); assay: Test A postemergence
Source text: as §1, §2

corn (Zea mays) = assay: Test A postemergence
Source text: as §1, §2

[11] = system: giant foxtail (Setaria faberii); assay: Test A postemergence
Source text: as §1, §2

[12] = system: pigweed (Amaranthus retroflexus); assay: Test A postemergence
Source text: as §1, §2

[13] = system: ragweed (common ragweed, Ambrosia elatior); assay: Test A postemergence
Source text: as §1, §2

[14] = system: ryegrass, Italian (Italian ryegrass, Lolium multiflorum); assay: Test A postemergence
Source text: as §1, §2

[15] = system: wheat (Triticum aestivum); assay: Test A postemergence
Source text: as §1, §2

[16] = 125 g ai/ha, postemergence, visual rating after approx. 10 d, 0 to 100 scale (0 no effect, 100 complete control)
[17] = Postemergence, 500 g ai/ha, 0 to 100 scale where 0 is no effect and 100 is complete control
[18] = 1000 g ai/ha, 0 is no effect, 100 is complete control
[19] = 1000 g ai/ha, postemergence, 0 to 100 scale, 0 no effect, 100 complete control

| Structure (SMILES) | Plant response rating, Kochia (Kochia (Kochia scoparia) [1]) | Kochia plant response rating (0 to 100 scale, 0 is no effect, 100 is complete control) (Kochia (Kochia scoparia) [1]) | Plant response rating, Barnyardgrass [2] | Barnyardgrass plant response rating (0 to 100 scale, 0 is no effect, 100 is complete control) [2] | Plant response rating, Foxtail, Giant [3] | Foxtail, Giant plant response rating (0 to 100 scale, 0 is no effect, 100 is complete control) [3] | Plant response rating, Pigweed [4] | Pigweed plant response rating (0 to 100 scale, 0 is no effect, 100 is complete control) [4] | Plant response rating, Ragweed [5] | Ragweed plant response rating (0 to 100 scale, 0 is no effect, 100 is complete control) [5] | Plant response rating, Ryegrass, Italian [6] | Ryegrass, Italian plant response rating (0 to 100 scale, 0 is no effect, 100 is complete control) [6] | Plant response rating, Galium [7, 16] | Plant response rating, Galium [7, 17] | Plant response rating, Kochia (Kochia (Kochia scoparia) [8]; [16]) | Plant response rating, Kochia (Kochia (Kochia scoparia) [8]; [17]) | Plant response rating, Barnyardgrass [9, 16] | Plant response rating, Barnyardgrass [9, 17] | Plant response rating, Blackgrass [10, 16] | Plant response rating, Blackgrass [10, 17] | also measured |
| --- | --- | --- | --- | --- | --- | --- | --- | --- | --- | --- | --- | --- | --- | --- | --- | --- | --- | --- | --- | --- | --- |
| CN1CC(c2cccc(C(F)(F)F)c2)C(C(=O)Nc2ccc(F)cc2F)C1=O (stereo not shown) [Compound 571] | 60 | 80 | 90 | 90 | 90 | 100 | 30 | 80 | 0 | 0 | 60 | 80 | 50 | 70 | 30 | 60 | 90 | 100 | 70 | 80 | Plant response rating, Corn (corn (Zea mays); [16]): 60; Plant response rating, Corn (corn (Zea mays); [17]): 80; Plant response rating, Foxtail, Giant [11, 16]: 90; Plant response rating, Foxtail, Giant [11, 17]: 90; Plant response rating, Pigweed [12, 16]: 20; Plant response rating, Pigweed [12, 17]: 30; Plant response rating, Ragweed [13, 16]: 0; Plant response rating, Ragweed [13, 17]: 0; Plant response rating, Ryegrass, Italian [14, 16]: 60; Plant response rating, Ryegrass, Italian [14, 17]: 60; Plant response rating, Wheat [15, 16]: 60; Plant response rating, Wheat [15, 17]: 70 |
| CCc1cccc(C2CN(C)C(=O)C2C(=O)Nc2ccc(F)cc2F)c1 (stereo not shown) [Compound 570] | 60 | 80 | 100 | 100 | 100 | 100 | 40 | 70 | 0 | 0 | 60 | 90 | 50 | 60 | 50 | 70 | 100 | 100 | 60 | 80 | Plant response rating, Corn (corn (Zea mays); [16]): 60; Plant response rating, Corn (corn (Zea mays); [17]): 80; Plant response rating, Foxtail, Giant [11, 16]: 90; Plant response rating, Foxtail, Giant [11, 17]: 90; Plant response rating, Pigweed [12, 16]: 20; Plant response rating, Pigweed [12, 17]: 20; Plant response rating, Ragweed [13, 16]: 0; Plant response rating, Ragweed [13, 17]: 0; Plant response rating, Ryegrass, Italian [14, 16]: 50; Plant response rating, Ryegrass, Italian [14, 17]: 80; Plant response rating, Wheat [15, 16]: 30; Plant response rating, Wheat [15, 17]: 60 |
| O=C(Nc1cccc(F)c1F)C1C(=O)N(CC=Cc2ccccc2)CC1c1cc(F)cc(F)c1 (stereo not shown) [Compound 511] | – | – | – | – | – | – | – | – | – | – | – | – | – | – | – | – | – | – | – | – | Kochia plant response rating (0 to 100 scale) (Kochia (Kochia scoparia) [1]; [18]): 0; Barnyardgrass plant response rating (0 to 100 scale) [2, 18]: 90; Foxtail, Giant plant response rating (0 to 100 scale) [3, 18]: 90; Pigweed plant response rating (0 to 100 scale) [4, 18]: 0; Ragweed plant response rating (0 to 100 scale) [5, 18]: 0; Ryegrass, Italian plant response rating (0 to 100 scale) [6, 18]: 0; Plant response rating, Galium [7, 19]: 0; Plant response rating, Kochia (Kochia (Kochia scoparia) [8]; [19]): 0; Plant response rating, Barnyardgrass [9, 19]: 90; Plant response rating, Blackgrass [10, 19]: 20; Plant response rating, Corn (corn (Zea mays); [19]): 0; Plant response rating, Foxtail, Giant [11, 19]: 90; Plant response rating, Pigweed [12, 19]: 0; Plant response rating, Ragweed [13, 19]: 0; Plant response rating, Ryegrass, Italian [14, 19]: 0; Plant response rating, Wheat [15, 19]: 0 |
| CN1CC(c2cccc(C(F)(F)F)c2)C(C(=O)Nc2ccccc2)C1=O (stereo not shown) [Compound 577] | 50 | 70 | 90 | 100 | 90 | 100 | 0 | 40 | 0 | 40 | 40 | 80 | 30 | 50 | 0 | 40 | 90 | 100 | 70 | 80 | Plant response rating, Corn (corn (Zea mays); [16]): 60; Plant response rating, Corn (corn (Zea mays); [17]): 80; Plant response rating, Foxtail, Giant [11, 16]: 90; Plant response rating, Foxtail, Giant [11, 17]: 90; Plant response rating, Pigweed [12, 16]: 0; Plant response rating, Pigweed [12, 17]: 0; Plant response rating, Ragweed [13, 16]: 0; Plant response rating, Ragweed [13, 17]: 30; Plant response rating, Ryegrass, Italian [14, 16]: 30; Plant response rating, Ryegrass, Italian [14, 17]: 30; Plant response rating, Wheat [15, 16]: 40; Plant response rating, Wheat [15, 17]: 70 |
